Source: ChEMBL document CHEMBL3352684, “Discovery of MK-3697: a selective orexin 2 receptor antagonist (2-SORA) for the treatment of insomnia” (Bioorg Med Chem Lett, 2014)
Where a chain is given by its changes, count along the chain named. Calls of active or inactive are those of the source. No cut-off for these calls is given here.

Columns and labels:
[1] = Plasma protein binding in human; type: ADME, cell-free; conditions: read-out: PPB (converted)
[2] = Apparent permeability of the compound; type: physicochemical; conditions: not told
[3] = molecular target: T1, Nuclear receptor subfamily 1 group I member 2 (Homo sapiens, UniProt O75469); assay: Activation of PXR (unknown origin)
T1 sequence (O75469 whole entry): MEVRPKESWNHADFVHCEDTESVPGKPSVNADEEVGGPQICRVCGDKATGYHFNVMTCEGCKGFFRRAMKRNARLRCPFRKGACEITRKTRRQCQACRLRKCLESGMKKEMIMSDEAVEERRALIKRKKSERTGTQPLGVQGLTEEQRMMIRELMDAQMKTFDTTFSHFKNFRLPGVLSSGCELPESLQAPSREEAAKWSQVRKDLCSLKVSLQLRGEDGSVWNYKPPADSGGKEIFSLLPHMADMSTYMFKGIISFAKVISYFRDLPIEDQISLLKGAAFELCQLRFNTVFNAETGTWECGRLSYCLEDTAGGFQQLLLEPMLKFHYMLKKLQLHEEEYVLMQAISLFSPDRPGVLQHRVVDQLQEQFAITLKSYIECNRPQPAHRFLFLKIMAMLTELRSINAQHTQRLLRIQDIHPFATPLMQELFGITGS

[4] = molecular target: T1, Nuclear receptor subfamily 1 group I member 2; assay: Activation of PXR (unknown origin) at 30 uM relative to rifampicin
[5] = Clearance in rat at 2 mg/kg, iv; type: ADME, organism-based; parameters: dose 2 mg/kg, route intravenous; conditions: in vivo
[6] = Volume of distribution at steady state in rat at 2 mg/kg, iv; type: ADME, organism-based; parameters: dose 2 mg/kg, route intravenous; conditions: in vivo, read-out: Vdss
[7] = Half life in rat at 2 mg/kg, iv; type: ADME, organism-based; parameters: dose 2 mg/kg, route intravenous; conditions: in vivo
[8] = Volume of distribution at steady state in dog at 1 mg/kg, iv; type: ADME, organism-based, Canis lupus familiaris; parameters: dose 1 mg/kg, route intravenous; conditions: in vivo, read-out: Vdss
[9] = Half life in dog at 1 mg/kg, iv; type: ADME, organism-based, Canis lupus familiaris; parameters: dose 1 mg/kg, route intravenous; conditions: in vivo
[10] = AUC (0 to infinity) in rat at 5 mg/kg, po; type: ADME, organism-based; parameters: time infinity, dose 5 mg/kg, route oral; conditions: plasma
[11] = Cmax in rat at 5 mg/kg, po; type: ADME, organism-based; parameters: dose 5 mg/kg, route oral; conditions: in vivo
[12] = Oral bioavailability in rat at 5 mg/kg; type: ADME, organism-based; conditions: in vivo
[13] = AUC (0 to infinity) in dog at 3 mg/kg, po; type: ADME, organism-based, Canis lupus familiaris; parameters: time infinity, dose 3 mg/kg, route oral; conditions: plasma
[14] = test system: Mus musculus; assay: Increase in slow wave sleep in mouse at 100 mg/kg, po after 2 hrs; type: functional, organism-based; parameters: dose 100 mg/kg
[15] = test system: Rattus norvegicus; assay: Increase in rapid eye movement sleep in Sprague-Dawley rat at 15 mg/kg, po after 2 hrs; type: functional, organism-based; parameters: dose 15 mg/kg
[16] = test system: Mus musculus; assay: Reduction in active wake sleep in OX2R-knockout mouse at 100 mg/kg, po after 2 hrs; type: functional, organism-based; parameters: dose 100 mg/kg
[17] = test system: Mus musculus; assay: Increase in rapid eye movement sleep in OX2R-knockout mouse at 100 mg/kg, po after 2 hrs; type: functional, organism-based; parameters: dose 100 mg/kg
[18] = test system: Canis familiaris; assay: Reduction in active wake sleep in dog at 3 mg/kg, po after 2 hrs; type: functional, organism-based; parameters: dose 3 mg/kg; conditions: Canis lupus familiaris
[19] = test system: Canis familiaris; assay: Increase in slow wave sleep in dog at 3 mg/kg, po after 2 hrs; type: functional, organism-based; parameters: dose 3 mg/kg; conditions: Canis lupus familiaris
[20] = molecular target: T2, Orexin receptor type 2 (Mus musculus) (UniProt P58308); assay: Antagonist activity at mouse OX2R by FLIPR assay
T2 sequence (whole entry): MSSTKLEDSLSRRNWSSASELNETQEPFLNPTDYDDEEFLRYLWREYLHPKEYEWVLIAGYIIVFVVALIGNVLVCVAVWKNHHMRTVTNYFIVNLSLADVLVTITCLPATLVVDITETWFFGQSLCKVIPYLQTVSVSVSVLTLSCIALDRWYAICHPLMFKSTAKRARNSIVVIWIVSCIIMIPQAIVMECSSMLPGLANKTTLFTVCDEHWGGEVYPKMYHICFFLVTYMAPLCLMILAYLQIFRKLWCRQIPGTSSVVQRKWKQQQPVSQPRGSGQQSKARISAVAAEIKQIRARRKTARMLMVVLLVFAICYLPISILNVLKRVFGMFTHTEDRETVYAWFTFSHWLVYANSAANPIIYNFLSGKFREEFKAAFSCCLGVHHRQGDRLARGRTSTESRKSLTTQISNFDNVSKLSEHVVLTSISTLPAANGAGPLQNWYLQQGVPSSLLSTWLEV

[21] = AUC in Sprague-Dawley rat at 15 mg/kg, po; type: ADME, organism-based; parameters: dose 15 mg/kg, route oral; conditions: plasma
[22] = Tmax in Sprague-Dawley rat at 15 mg/kg, po; type: ADME, organism-based; parameters: dose 15 mg/kg, route oral; conditions: in vivo
[23] = Plasma protein binding in Sprague-Dawley rat; type: ADME, cell-free; conditions: read-out: PPB (converted)
[24] = Drug uptake in Sprague-Dawley rat CSF at 15 mg/kg, po; type: ADME, organism-based, Cerebrospinal fluid; parameters: dose 15 mg/kg, route oral; conditions: in vivo, read-out: Drug uptake
[25] = molecular target: T3, Orexin receptor type 2 (Rattus norvegicus) (UniProt P56719); assay: Antagonist activity at Sprague-Dawley rat OX2R by FLIPR assay
T3 sequence (whole entry): T2 sequence (whole entry) with S11P, C193R, H213R, I240V, Q269P, H387R, V424A

[26] = molecular target: T4, Orexin/Hypocretin receptor type 1 (Rattus norvegicus) (UniProt P56718); assay: Antagonist activity at Sprague-Dawley rat OX1R by FLIPR assay
T4 sequence (whole entry): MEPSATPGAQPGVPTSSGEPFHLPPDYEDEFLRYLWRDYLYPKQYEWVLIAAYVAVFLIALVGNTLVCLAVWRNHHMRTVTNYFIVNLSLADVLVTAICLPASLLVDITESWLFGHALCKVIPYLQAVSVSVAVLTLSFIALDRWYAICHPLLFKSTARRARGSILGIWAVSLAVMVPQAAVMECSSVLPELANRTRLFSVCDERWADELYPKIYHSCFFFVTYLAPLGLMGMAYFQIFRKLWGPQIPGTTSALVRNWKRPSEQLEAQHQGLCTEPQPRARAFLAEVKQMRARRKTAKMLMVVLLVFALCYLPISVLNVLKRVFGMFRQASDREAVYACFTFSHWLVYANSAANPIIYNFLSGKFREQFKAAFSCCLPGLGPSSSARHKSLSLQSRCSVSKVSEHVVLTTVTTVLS

[27] = AUC in dog at 3 mg/kg, po; type: ADME, organism-based, Canis lupus familiaris; parameters: dose 3 mg/kg, route oral; conditions: plasma
[28] = Tmax in dog at 3 mg/kg, po; type: ADME, organism-based, Canis lupus familiaris; parameters: dose 3 mg/kg, route oral; conditions: in vivo
[29] = Plasma protein binding in dog; type: ADME, cell-free, Canis lupus familiaris; conditions: read-out: PPB (converted)

For `COc1ccc(CNC(=O)c2cc(-c3cncc(C)c3)ncc2-c2nccs2)nc1OC`, the fraction unbound [1] was 0.04, the Papp [2] was 33 ×10⁻⁶ cm/s and the EC50 [3] was over 30 µM. It also gave an Activity [4] of 16%, a clearance [5] of 40.7 mL/min/kg and a Vd [6] of 1.2 L/kg. It also gave a half-life [7] of 24 min, a Vd [8] of 0.7 L/kg and a half-life [9] of 72 min. The AUC(0-inf) [10] was 3 µM·h, the Cmax [11] was 2100 nM and the bioavailability [12] was 64%. For the same molecule, the AUC(0-inf) [13] was 7.5 µM·h, the Activity [14] was “Active” and the Activity [15] was “Active”. For the same molecule, the Activity [16] was “inactive”, the Activity [17] was “inactive” and the Activity [18] was “Active”. The Activity [19] was “Active”, the INH [20] was 12 nM and the AUC [21] was 17.2 µM·h. The Tmax [22] was 48 min, the fraction unbound [23] was 0.164 and the concentration [24] was 900 nM. It also gave an INH [25] of 31 nM, an INH [26] of 36.4 µM and an AUC [27] of 9 µM·h. The Tmax [28] was 60 min and the fraction unbound [29] was 0.169.
